ChEMBL document CHEMBL1201862, “PubChem BioAssay data set” (2004)
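The compound was tested at five concentrations on cells cultured in 96-well plates, with a 48-hour exposure period. Abbreviation: GI50, concentration required for 50% inhibition of growth.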 Activity calls are given as the source filed them. Rule as the data show it: active = GI50 up to about 1.1 µM and inactive = higher.

What was measured:
Test in all cases: growth of human tumour cells (NCI), 48 h
A498 = test system: A498
COLO 205 = test system: COLO 205
DU-145 = test system: DU-145
Hs-578T = test system: Hs-578T
KM12 = test system: KM12
MDA-MB-435 = test system: MDA-MB-435
MOLT-4 = test system: MOLT-4
NCI-H460 = test system: NCI-H460
NCI-H522 = test system: NCI-H522
PC-3 = test system: PC-3
SF-295 = test system: SF-295
SF-539 = test system: SF-539
SK-MEL-28 = test system: SK-MEL-28
SK-MEL-2 = test system: SK-MEL-2
SK-OV-3 = test system: SK-OV-3
SN12C = test system: SN12C
SNB-19 = test system: SNB-19
SR = test system: SR
T47D = test system: T47D
U-251 = test system: U-251

Row | Compound | GI50 (A498) | GI50 (COLO 205) | GI50 (DU-145) | GI50 (Hs-578T) | GI50 (KM12) | GI50 (MDA-MB-435) | GI50 (MOLT-4) | GI50 (NCI-H460) | GI50 (NCI-H522) | GI50 (PC-3) | GI50 (SF-295) | GI50 (SF-539) | GI50 (SK-MEL-28) | GI50 (SK-MEL-2) | GI50 (SK-OV-3) | GI50 (SN12C) | GI50 (SNB-19) | GI50 (SR) | GI50 (T47D) | GI50 (U-251)
1 | C/C(=N/NC(=S)N1CCCCCC1)c1cccc(/C(C)=N\NC(=S)N2CCCCCC2)n1 | 1.49 µM (inactive) | 1.47 µM (inactive) | 2.29 µM (inactive) | 5.2 µM (inactive) | 1.63 µM (inactive) | 1.84 µM (inactive) | 2.43 µM (inactive) | 2.55 µM (inactive) | 2.62 µM (inactive) | 1.64 µM (inactive) | 1.89 µM (inactive) | 1.56 µM (inactive) | 2.3 µM (inactive) | 1.67 µM (inactive) | 2.43 µM (inactive) | 2.09 µM (inactive) | 3.27 µM (inactive) | 2.38 µM (inactive) | 2.31 µM (inactive) | 2.32 µM (inactive)
2 | COC(=O)C12OC3CO[Si](C(C)C)(C(C)C)O[Si](C(C)C)(C(C)C)OC3C1Oc1nc(=O)ccn12 (centres undefined) | 23.7 µM (inactive) | 18.7 µM (inactive) | 18.5 µM (inactive) | < 0.01 µM (active) | 15.7 µM (inactive) | 17.1 µM (inactive) | 12.1 µM (inactive) |  |  | 15.3 µM (inactive) | 16 µM (inactive) | 16.4 µM (inactive) | 16.7 µM (inactive) | 17.1 µM (inactive) | 17.3 µM (inactive) | 17.9 µM (inactive) | 17.3 µM (inactive) | 15 µM (inactive) | 18.8 µM (inactive) | 16.1 µM (inactive)
3 | O=c1c2ncn(C3CCCCO3)c2n(-c2ccccc2)c(=S)n1-c1ccccc1 (centres undefined) | 30.7 µM (inactive) | > 71.4 µM (inactive) | > 71.3 µM (inactive) | 10.1 µM (inactive) | > 76.4 µM (inactive) | > 67.6 µM (inactive) | > 100 µM (inactive) | > 54.8 µM (inactive) | 39.6 µM (inactive) | 80.4 µM (inactive) | 16.1 µM (inactive) | 10.8 µM (inactive) | > 68.1 µM (inactive) | 39.2 µM (inactive) | 20.7 µM (inactive) | 56.6 µM (inactive) | 21.5 µM (inactive) | > 4.65 µM (inactive) | 2.31 µM (inactive) | 14.5 µM (inactive)
4 | O=C1c2cccc3cccc(c23)C2NCCCN12 (centres undefined) | > 100 µM (inactive) | > 100 µM (inactive) | > 100 µM (inactive) | > 100 µM (inactive) | > 100 µM (inactive) | > 100 µM (inactive) | 47.3 µM (inactive) | > 100 µM (inactive) | 28.8 µM (inactive) | > 100 µM (inactive) | > 100 µM (inactive) |  | > 100 µM (inactive) |  | > 100 µM (inactive) | > 100 µM (inactive) | > 100 µM (inactive) | 71 µM (inactive) | > 100 µM (inactive) | > 100 µM (inactive)
5 | C/C(=C/CNc1ncnc2c1ncn2CCC#N)CO | > 100 µM (inactive) | > 100 µM (inactive) | > 100 µM (inactive) | > 100 µM (inactive) | > 100 µM (inactive) | > 100 µM (inactive) | > 100 µM (inactive) | > 100 µM (inactive) | > 100 µM (inactive) | > 100 µM (inactive) | > 100 µM (inactive) | > 100 µM (inactive) | > 100 µM (inactive) |  | > 100 µM (inactive) | > 100 µM (inactive) | > 100 µM (inactive) | > 100 µM (inactive) | > 100 µM (inactive) | 
6 | CC(C)(CO)CNc1nc(N)nc(Cl)c1C=O | > 100 µM (inactive) | 25.5 µM (inactive) | 94 µM (inactive) | 22.9 µM (inactive) | 90.4 µM (inactive) | 25.9 µM (inactive) | 19.8 µM (inactive) | 36.4 µM (inactive) | 7.67 µM (inactive) | 16.8 µM (inactive) | 42.4 µM (inactive) | 54.2 µM (inactive) | 24.4 µM (inactive) | 16.8 µM (inactive) |  | 18.9 µM (inactive) |  | 17.5 µM (inactive) | 42.9 µM (inactive) | 32.8 µM (inactive)
7 | O=C(c1ccccc1)c1ccc(N2C(=O)/C(=C/c3ccccc3S)N=C2c2ccccc2)c(N2C(=O)/C(=C/c3ccccc3S)N=C2c2ccccc2)c1 | 60.7 µM (inactive) | 60.1 µM (inactive) | 59 µM (inactive) | 35 µM (inactive) | 33.3 µM (inactive) | 19.6 µM (inactive) | 21.4 µM (inactive) | 47.6 µM (inactive) |  | 42.6 µM (inactive) | 46.6 µM (inactive) | 21.3 µM (inactive) | > 100 µM (inactive) | 22.7 µM (inactive) | > 100 µM (inactive) | > 100 µM (inactive) | 41.5 µM (inactive) | 30.5 µM (inactive) | 43.3 µM (inactive) | 25.2 µM (inactive)
8 | CC1(CF)SCc2nc3ccccc3n21 (centres undefined) | > 100 µM (inactive) | > 100 µM (inactive) | > 100 µM (inactive) | > 100 µM (inactive) | > 100 µM (inactive) | > 100 µM (inactive) |  | > 100 µM (inactive) | > 100 µM (inactive) | > 100 µM (inactive) | > 100 µM (inactive) | > 100 µM (inactive) | > 100 µM (inactive) |  | > 100 µM (inactive) | > 100 µM (inactive) | > 100 µM (inactive) | > 100 µM (inactive) | > 100 µM (inactive) | > 100 µM (inactive)
